“And” between values parts separate entries of the source, which are not always exact repeats. Equal values may be shown once.
Columns and labels:
Assay type in all cases: in vivo
Boophilus microplus = experiment: Control of Ixodidae: engorged adult female ticks, reduction in viable egg masses
Description: The compound to be tested is dissolved in a 35% acetone/65% water mixture in amounts sufficient to provide the concentrations indicated in Table I below. Ten ticks per treatment are used and they are immersed in the test solution for three to five minutes, then removed and held in incubators for two to three weeks at 28° C. Counts of ticks laying eggs are then made and recorded. Eggs which were laid are placed in containers and kept for one month to observe hatching and to determine chemosterilant effect.
Percent reduction in viable egg masses is believed to be indicative of one or more of the following mechanisms:
2. Suppression of fecundity.
3. Chemosterilant effect.

[1] = system: Boophilus microplus larvae; experiment: Control of Boophilus microplus larvae; conditions: Rhipicephalus microplus, 48 h, read-out: Percent Mortality of Boophilus microplus
Description: Twenty larvae are enclosed in a pipet sealed at one end with a gauze material, and a solution, containing the test compound at the concentrations given, is then drawn through the pipet with a vacuum hose simulating a spray system. The ticks are then held for 48 hours at room temperature, and percent mortality rates are then determined.

[2] = system: Tobacco Budworm [Heliothis virescens] eggs; experiment: Tobacco Budworm egg test; conditions: 300 ppm, 3 days
Description: (§1) Tobacco Budworm [Heliothis virescens (Fabricus)].
(§2) A cotton plant with 2 true leaves expanded is dipped for 3 seconds with agitation in a 300 ppm solution. A 1.25 to 2 cm square of cheesecloth with about 50 to 100 budworm eggs 0-24 hours old is also dipped in the test solution and placed on one leaf to dry. The leaf with the treated budworm eggs is removed from the plant and placed in a 236.6 ml (8-Oz) Dixie cup with a wet 5 cm piece of dental wick and covered with a lid. The other leaf is placed in a similar cup with a wick and a piece of cheesecloth infested with 50-100 newly hatched larvae is added before covering the cup with a lid. After 3 days at 26.7° C., observations of egg hatch are made as well as kill of newly hatched larvae, any inhibition of feeding, or interference of any sort with normal development.
(§3) The rating system employed in these tests is as follows:
(§4) Compounds rated active (8 or 9) are further tested at reduced concentrations in 50% acetone: 50% water.

[3] = system: Malaria Mosquito (Anopheles quadrimaculatus); experiment: Malaria Mosquito egg and larvae test
Description: Malaria Mosquito (Anopheles quadrimaculatus say) egg and larvae test. One ml of a 300 ppm solution is pipetted into a 400 ml beaker containing 250 ml of deionized water and stirred with the pipette, giving a concentration of 1.2 ppm. A wax paper ring 0.6 cm wide to fit inside the beaker is floated on the surface of the test solution to keep the eggs from floating up the meniscus curve and drying out on the side of the glass. A spoon made of screen is used to scoop up and transfer about 100 eggs (0-24 hours old) into the test beaker. After two days at 26.7°C. observations of hatching are made. This includes kill of eggs or inhibition of hatch, kill of newly hatched larvae, or delayed hatch. Additional observations are made after another day for the same effects. The rating system employed in these tests is as follows: Compounds rated active (8 or 9) are further tested at reduced concentrations in 50% acetone: 50% water.

[4] = system: Tobacco Budworm [Heliothis virescens] larvae; experiment: Tobacco Budworm newly hatched larvae test; conditions: 3 days
Description: as §1, §2, §3, §4

[5] = system: Southern Armyworm [Spodoptera eridania]; experiment: Southern Armyworm test; conditions: 2 days
Description: Southern Armyworm [Spodoptera eridania (Cramer)].
A sieva lima bean plant with just the primary leaves expanded to 7.6 to 10 cm is dipped for 3 seconds with agitation in a 1000 ppm solution and set in a hood to dry. Following this, one leaf is placed in a 10 cm petri dish which has a moist filter paper in the bottom and 10 third-instar armyworm larvae about 1 cm long. The dish is covered and held at 26.7° C. After 2 days mortality counts and estimates of the amount of feeding are made. Compounds showing partial kill and/or inhibition of feeding are held for an extra day for further observations.
as §3, §4

[6] = system: Mexican Bean Beetle (Epilachna varivestis); experiment: Mexican Bean Beetle test; conditions: 300 ppm
Description: Mexican Bean Beetle (Epilachna varivestis Mulsant)
Sieva lima bean plants (2 per pot) with primary leaves 7.6 to 10 cm long, are dipped in a 300 ppm solution and set in a hood to dry. One leaf is removed from the plant and placed in a 10 cm petri dish containing a moist filter paper on the bottom and 10 last-instar larvae (13 days from hatching).
The day after treatment, another leaf is removed from the plant and fed to the larvae after removing the remains of the original leaf. Two days after treatment, the third leaf is fed to the larvae, this usually being the last needed. The fourth leaf is used on the third day after treatment if the larvae have not finished feeding. The test is now set aside and held until adults have emerged, usually about 9 days after treatment began. After emergence is complete, each dish is examined for dead larvae, pupae or adults; deformed pupae or adults; larval-pupal intermediates or pupal-adult intermediates; or any other interference with normal molting, transformation and emergence of pupae or adults.
as §3, §4

[7] = system: Two-Spotted Spider Mite [Tetranychus urticae]; experiment: Phosphate-Resistant Strain of Two-Spotted Spider Mite test
Description: Phosphate-Resistant Strain of Two-Spotted Spider Mite [Tetranychus urticae (Koch)].
Sieva lima bean plants, with primary leaves 7.6 to 10 cm long, are infested with about 100 adult mites per leaf 4 hours before use in this test, in order to allow egg-laying before treatment. The infested plants are dipped for 3 seconds with agitation into a 300 ppm solution, and the plants set in the hood to dry. After 2 days at 26.7° C., the adult mite mortality is estimated on one leaf under a 10X stereoscopic microscope. The other leaf is left on the plant an additional 5 days and then examined at 10X power to estimate the kill of eggs and of newly-hatched nymphs, giving a measure of ovicidal and residual action, respectively.
as §3, §4

[8] = system: Malaria Mosquito (Anopheles quadrimaculatus) adult; experiment: Malaria Mosquito Adult Test; conditions: 1 day
Description: Malaria Mosquito (Anopheles quadrimaculatus Say) Adult Test
Ten ppm solutions are poured into wide-mouth 46.2 ml jars each containing a microscope slide. The slides are removed from the test solution with forceps and laid horizontally to dry on a wide-mouth 118.4 ml bottle. When dry, they are placed in the same 118.4 ml bottle and ten 4 to 5-day old mosquitoes of mixed sexes are added to each bottle. A piece of cotton gauze held on by an elastic band serves as a lid and a wad of cotton soaked in 10% honey solution serves as food. Mortality counts are made after 1 day at 26.7° C.
as §3, §4

[9] = system: Tobacco Budworm [Heliothis virescens] third instar; experiment: Tobacco Budworm third instar test; conditions: 3 days
Description: Tobacco Budworm [Heliothis virescens (Fabricius)]. Third instar. Three cotton plants with just expanded cotyledons are dipped in a 1000 ppm solution, and placed in a hood to dry. When dry, each cotyledon is cut in half and 10 are each placed in a 29.6 ml plastic medicine cup containing a 1.25 cm dental wick saturated with water, and one third-instar budworm larva is added. The cup is capped and held for 3 days at 26.7° C., after which mortality counts are made. The rating system employed in these tests is as follows: Compounds rated active (8 or 9) are further tested at reduced concentrations in 50% acetone: 50% water.

[10] = system: Western Potato Leaf Hopper (Empoasca abrupta); experiment: Western Potato Leaf Hopper test; conditions: 2 days
Description: Western Potato Leaf Hopper (Empoasca abrupta DeLong)
A lima bean plant with the primary leaf expanded to 7.6 to 10 cm is dipped into a 100 ppm solution and set in a hood to dry. A 2.5 cm piece of the tip of 1 leaf is cut off and placed in a 10 cm petri dish with a moist filter paper in the bottom. (In practice, this is usually cut off the tip of a plant from the Mexican bean beetle tests using a bean leaf dipped in the needed solution). From 3 to 10 second-instar nymphs are tapped from the culture plants into the test dish and rapidly covered. Mortality counts are made after two days at 26.7° C.
as §3, §4

Bean Aphid (Aphid fabae) = experiment: Bean Aphid test; conditions: 1 day
Description: Bean Aphid (Aphid fabae Scopoli).
Five cm fiber pots, each containing a nasturtium plant 5 cm high and infested with 100 to 500 aphids 2 days earlier are placed on a 4 rpm turntable and sprayed with a 100 ppm solution of 2 revolutions with a No. 154 DeVilbiss Atomizer at 1.4 kg/cm^2 air pressure. The spray tip is held about 15 cm from the plants and the spray directed so as to give complete coverage of the aphids and the plants. The sprayed plants are laid on their sides on white enamel trays. Mortality estimates are made after 1 day at 26.7° C.
as §3, §4

[11] = system: Cabbage Looper [Trichoplusia ni]; experiment: Cabbage Looper test; conditions: 2 days
Description: Cabbage Looper. [Trichoplusia ni (Hubner)].
A primary leaf of a cotton plant is dipped in the test solution and agitated for 3 seconds. It is then set in a hood to dry. Following this, the leaf is placed in a 10 cm petri dish containing a moist filter paper at the bottom and 10 third-instar loopers. The dish is covered and held at 26.7° C. After 2 days, mortality counts and estimates of feeding damage are recorded. Those materials showing partial kill and/or inhibition of feeding are held for another day for further observations.
as §3, §4

CC1(C)C(C(=O)OC(C#N)c2cccc(Oc3ccccc3)c2)C12C=C(Cl)c1ccccc12 (centres unmarked) [drawing 5]
Percent reduction in viable egg masses (Boophilus microplus; 125 ppm): 98%

CC1(C)C(C(=O)OCc2cccc(Oc3ccccc3)c2)C12C=C(Cl)c1ccccc12 (centres unmarked) [drawing 6]
Percent reduction in viable egg masses (Boophilus microplus; 15 ppm): 0% | Percent reduction in viable egg masses (Boophilus microplus; 31 ppm): 72.7% | Percent reduction in viable egg masses (Boophilus microplus; 62 ppm): 83.9% | Percent reduction in viable egg masses (Boophilus microplus; 125 ppm): 91.9%

CC1(C)C(C(=O)OC(C#N)c2cccc(Oc3ccccc3)c2)C12C=C(Cl)c1ccccc12 (centres unmarked) [drawing 7]
mortality at 0.012 ppm ([1]; 0.012 ppm): 0% | mortality at 0.05 ppm ([1]; 0.05 ppm): 0% | mortality at 0.78 ppm ([1]; 0.78 ppm): 80 to 100%

CC1(C)C(C(=O)OCc2cccc(Oc3ccccc3)c2)C12C=C(Cl)c1ccccc12 (centres unmarked) [drawing 8]
mortality at 100 ppm ([1]; 100 ppm): 100%

CC1(C)C(C(=O)OC(C#N)c2cccc(Oc3ccccc3)c2)C12C=C(Cl)c1ccccc12 (centres unmarked) [drawing 9]
Insecticidal activity rating, Tobacco Budworm Eggs [2]: 0 (0-4% killed or affected) | Insecticidal activity rating, Mosquito Larvae ([3]; 0.04 ppm): 9 (100% mortality) | Insecticidal activity rating, Mosquito Larvae ([3]; 0.4 ppm): 9 (100% mortality) | Insecticidal activity rating, Mosquito Larvae ([3]; 1.2 ppm): 9 (100% mortality) | Insecticidal activity rating, Tobacco Budworm Larvae ([4]; 10 ppm): 9 (100% mortality) | Insecticidal activity rating, Tobacco Budworm Larvae ([4]; 100 ppm): 9 (100% mortality) | Insecticidal activity rating, Tobacco Budworm Larvae ([4]; 300 ppm): 9 (100% mortality)

CC1(C)C(C(=O)OCc2cccc(Oc3ccccc3)c2)C12C=C(Cl)c1ccccc12 (centres unmarked) [drawing 10]
Insecticidal activity rating, Tobacco Budworm Eggs [2]: 0 (0-4% killed or affected) | Insecticidal activity rating, Mosquito Larvae ([3]; 0.04 ppm): 9 (100% mortality) | Insecticidal activity rating, Mosquito Larvae ([3]; 0.4 ppm): 9 (100% mortality) | Insecticidal activity rating, Mosquito Larvae ([3]; 1.2 ppm): 9 (100% mortality) | Insecticidal activity rating, Tobacco Budworm Larvae ([4]; 10 ppm): 9 (100% mortality) | Insecticidal activity rating, Tobacco Budworm Larvae ([4]; 100 ppm): 9 (100% mortality) | Insecticidal activity rating, Tobacco Budworm Larvae ([4]; 300 ppm): 9 (100% mortality)

CC1(C)C(C(=O)OCc2cccc(Oc3ccccc3)c2)C12C=C(Cl)c1ccccc12 (centres unmarked) [drawing 12]
Insecticidal activity rating, Southern Armyworms ([5]; 10 ppm): 0 (0-4% killed or affected) | Insecticidal activity rating, Southern Armyworms ([5]; 100 ppm): 9 (100% mortality) | Insecticidal activity rating, Southern Armyworms ([5]; 1000 ppm): 9 (100% mortality) | Insecticidal activity rating, Mexican Bean Beetles [6]: 9 (100% mortality) | Activity rating, Phosphate Resistant Mites ([7]; 100 ppm): 0 (0-4% killed or affected) | Activity rating, Phosphate Resistant Mites ([7]; 300 ppm): 8 (86-95% mortality)

CC1(C)C(C(=O)OC(C#N)c2cccc(Oc3ccccc3)c2)C12C=C(Cl)c1ccccc12 (centres unmarked) [drawing 13]
Insecticidal activity rating, Mosquito, Adult ([8]; 1 ppm): 7 (71-85% mortality) and 6 (61-70% mortality) and 9 (100% mortality) | Insecticidal activity rating, Mosquito, Adult ([8]; 10 ppm): 9 (100% mortality) | Insecticidal activity rating, Tobacco Budworm 3rd Instar ([9]; 100 ppm): 0 (0-4% killed or affected) | Insecticidal activity rating, Tobacco Budworm 3rd Instar ([9]; 1000 ppm): 5 (51-60% mortality) | Insecticidal activity rating, Leaf Hopper ([10]; 10 ppm): 9 (100% mortality) | Insecticidal activity rating, Leaf Hopper ([10]; 100 ppm): 9 (100% mortality) | Insecticidal activity rating, Bean Aphids (Bean Aphid (Aphid fabae); 1 ppm): 9 (100% mortality) | Insecticidal activity rating, Bean Aphids (Bean Aphid (Aphid fabae); 10 ppm): 9 (100% mortality) | Insecticidal activity rating, Bean Aphids (Bean Aphid (Aphid fabae); 100 ppm): 9 (100% mortality) | Insecticidal activity rating, Cabbage Looper ([11]; 100 ppm): 9 (100% mortality) | Insecticidal activity rating, Cabbage Looper ([11]; 1000 ppm): 9 (100% mortality)

CC1(C)C(C(=O)OCc2cccc(Oc3ccccc3)c2)C12C=C(Cl)c1ccccc12 (centres unmarked) [drawing 14]
Insecticidal activity rating, Mosquito, Adult ([8]; 10 ppm): 0 (0-4% killed or affected) | Insecticidal activity rating, Tobacco Budworm 3rd Instar ([9]; 100 ppm): 5 (51-60% mortality) | Insecticidal activity rating, Tobacco Budworm 3rd Instar ([9]; 1000 ppm): 9 (100% mortality) | Insecticidal activity rating, Leaf Hopper ([10]; 10 ppm): 9 (100% mortality) | Insecticidal activity rating, Leaf Hopper ([10]; 100 ppm): 9 (100% mortality) | Insecticidal activity rating, Bean Aphids (Bean Aphid (Aphid fabae); 1 ppm): 0 (0-4% killed or affected) | Insecticidal activity rating, Bean Aphids (Bean Aphid (Aphid fabae); 10 ppm): 9 (100% mortality) | Insecticidal activity rating, Bean Aphids (Bean Aphid (Aphid fabae); 100 ppm): 9 (100% mortality) | Insecticidal activity rating, Cabbage Looper ([11]; 100 ppm): 9 (100% mortality) | Insecticidal activity rating, Cabbage Looper ([11]; 1000 ppm): 9 (100% mortality)
